In this assay the target is T1, hTLR9 (Homo sapiens, UniProt Q9NR96).
T1 sequence (Q9NR96 26-1032): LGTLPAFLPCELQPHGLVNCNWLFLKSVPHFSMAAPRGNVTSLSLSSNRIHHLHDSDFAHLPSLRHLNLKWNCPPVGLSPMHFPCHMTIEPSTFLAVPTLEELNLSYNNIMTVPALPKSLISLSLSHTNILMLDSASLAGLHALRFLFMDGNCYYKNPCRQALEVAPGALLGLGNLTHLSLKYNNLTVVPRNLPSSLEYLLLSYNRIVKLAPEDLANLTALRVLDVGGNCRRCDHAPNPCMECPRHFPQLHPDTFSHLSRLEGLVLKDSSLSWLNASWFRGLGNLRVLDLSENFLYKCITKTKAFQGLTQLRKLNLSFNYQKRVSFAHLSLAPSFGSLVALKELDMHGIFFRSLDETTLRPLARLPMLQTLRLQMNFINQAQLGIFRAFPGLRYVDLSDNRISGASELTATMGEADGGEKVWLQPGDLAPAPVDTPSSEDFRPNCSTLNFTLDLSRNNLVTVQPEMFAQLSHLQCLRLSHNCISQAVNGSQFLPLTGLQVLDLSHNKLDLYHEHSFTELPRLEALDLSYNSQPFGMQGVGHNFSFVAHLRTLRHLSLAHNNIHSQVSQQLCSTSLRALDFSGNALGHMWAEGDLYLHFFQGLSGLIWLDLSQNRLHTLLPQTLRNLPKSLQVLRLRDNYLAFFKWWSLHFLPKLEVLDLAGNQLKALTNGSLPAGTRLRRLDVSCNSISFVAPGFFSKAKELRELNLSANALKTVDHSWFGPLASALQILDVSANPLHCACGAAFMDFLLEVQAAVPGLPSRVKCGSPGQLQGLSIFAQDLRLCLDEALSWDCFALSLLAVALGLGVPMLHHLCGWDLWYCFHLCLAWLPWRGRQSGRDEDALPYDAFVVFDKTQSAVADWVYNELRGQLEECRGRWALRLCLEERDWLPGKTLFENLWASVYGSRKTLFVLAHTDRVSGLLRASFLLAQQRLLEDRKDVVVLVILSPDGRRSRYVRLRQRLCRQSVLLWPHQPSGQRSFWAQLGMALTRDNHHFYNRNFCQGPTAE
Briefly: HEK293-Blue-hTLR-9 cells assay (SEAP reporter, ODN2006 stimulation). The assay is classed as cell-based. Particulars: HEK293-Blue-hTLR9 cells, ODN2006, 20 hrs; read-out: HEK/hTLR9 IC50. More on the design: host or cells: HEK293 (HEK-Blue). An excerpt:
A stable HEK293-Blue-hTLR-9 cell line was purchased from InvivoGen (Cat.#: hkb-htlr9, San Diego, California, USA). These cells were originally designed for studying the stimulation of human TLR9 by monitoring the activation of NF-κB. A SEAP (secreted embryonic alkaline phosphatase) reporter gene was placed under the control of the IFN-β minimal promoter fused to five NF-κB and AP-1-binding sites. The SEAP was induced by activating NF-κB and AP-1 via stimulating HEK-Blue hTLR9 cells with TLR9 ligands. Therefore, the reporter expression was declined by TLR9 antagonist under the stimulation of a ligand, such as ODN2006 (Cat.#: tlrl-2006-1, Invivogen, San Diego, California, USA), for incubation of 20 hrs. The cell culture supernatant SEAP reporter activity was determined using QUANTI-Blue™ kit (Cat.#: rep-qb 1, Invivogen, San Diego, California, USA) at a wavelength of 640 nm, a detection medium that turns purple or blue in the presence of alkaline phosphatase.
HEK293-Blue-hTLR9 cells were incubated at a density of 250,000-450,000 cells/mL in a volume of 170 µL in a 96-well plate in Dulbecco's Modified Eagle's medium (DMEM) containing 4.5 g/L glucose, 50 U/mL penicillin, […], […], 2 mM L-glutamine, 10% (v/v) heat-inactivated fetal bovine serum with addition of 20 µL test compound in a serial dilution in the presence of final DMSO at 1% and 10 µL of 20uM ODN2006 in above DMEM, perform incubation under 37 °C in a CO2 incubator for 20 hrs. Then 20 µL of the supernatant from each well was incubated with 180 µL Quanti-blue substrate solution at 37 °C for 2 hrs and the absorbance was read at 620-655 nm using a spectrophotometer. The signaling pathway that TLR9 activation leads to downstream NF-κB activation has been widely accepted, and therefore similar reporter assay was modified for evaluating TLR9 antagonist.

Experimental findings from patent EP3807270B1, “NOVEL HETEROARYL HETEROCYCLYL COMPOUNDS FOR THE TREATMENT OF AUTOIMMUNE DISEASE” (F. Hoffmann-La Roche AG, priority 2018, dated 2019) are described below.

Structures are written as SMILES. Some results are limits rather than exact numbers.

Turning to `C[C@@H]1CN(c2ccc(C#N)c3ncccc23)C[C@H](CN2CCN(c3ccc4c(n3)CCNC4)C[C@H](O)C2)O1` (single isomer, unassigned) [Example 35A], the IC50 was found to be 147 nM.
As to `C[C@@H]1CN(c2ccc(C#N)c3ncccc23)C[C@H](CN2CCN(c3ccc4c(n3)CCNC4)C[C@@H](O)C2)O1` (single isomer, unassigned) [Example 35B], the IC50 stood at 117 nM.
To `C[C@@H]1CN(c2ccc(C#N)c3ncccc23)C[C@H](CN2C[C@H]3CN(c4ccc5c(n4)CCNC5)CC[C@@H]32)O1` (single isomer, unassigned) [Example 54] belongs under 32 nM; to `C[C@@H]1CN(c2ccc(C#N)c3ncccc23)C[C@H](CN2CCN(c3ccc4c(n3)CN[C@H]4C)CC2)O1` (single isomer, unassigned) [Example 63], 67 nM.
Regarding `C[C@@H]1CN(c2ccc(C#N)c3ncccc23)C[C@H](CN2CCN(c3ccc4c(n3)CN[C@@H]4C)CC2)O1` (single isomer, unassigned) [Example 64], the IC50 was 92 nM.
Regarding `C[C@@H]1CN(c2ccc(C#N)c3ncccc23)C[C@H](CN2CCN(c3ccc4c(n3)[C@@H](C)NC4)CC2)O1` (single isomer, unassigned) [Example 65], the IC50 was 81 nM.
Consider `C[C@@H]1CN(c2ccc(C#N)c3ncccc23)C[C@H](CN2CCN(c3ccc4c(n3)[C@H](C)NC4)CC2)O1` (single isomer, unassigned) [Example 66], for which the IC50 was found to be 112 nM.
With `C[C@@H]1CN(c2ccc(C#N)c3ncccc23)C[C@H](CN2CCN(c3cnc4c(c3)CN[C@H]4C)CC2)O1` (single isomer, unassigned) [Example 67], the IC50 came to 143 nM.
To `C[C@@H]1Cc2cc(N3CCN(C[C@H]4CN(c5ccc(C#N)c6ncccc56)C[C@@H](C)O4)CC3)ncc2CN1` (single isomer, unassigned) [Example 70] belongs 83 nM; to `C[C@@H]1CN(c2ccc(C#N)c3ncccc23)C[C@H](CN2CCN(c3cc4c(cn3)CN[C@@H](C)C4)CC2)O1` (single isomer, unassigned) [Example 71], 91 nM; to `C[C@@H]1CN(c2ccc(C#N)c3ncccc23)C[C@H](CN2CCN(c3cc4c(cn3)[C@H](C)NCC4)CC2)O1` (single isomer, unassigned) [Example 72], 66 nM.
To `C[C@@H]1CN(c2ccc(C#N)c3ncccc23)C[C@H](CN2CCN(c3cc4c(cn3)CCN[C@H]4C)CC2)O1` (single isomer, unassigned) [Example 75] belongs 68 nM; to `C[C@@H]1Cc2cnc(N3CCN(C[C@H]4CN(c5ccc(C#N)c6ncccc56)C[C@@H](C)O4)CC3)cc2CN1` (single isomer, unassigned) [Example 77], 115 nM; to `C[C@@H]1Cc2cnc(N3CCN(C[C@H]4CN(c5ccc(C#N)c6nccnc56)C[C@@H](C)O4)CC3)cc2CN1` (single isomer, unassigned) [Example 82], 192 nM.
The figure for `C[C@@H]1CN(c2ccc(C#N)c3nccnc23)C[C@H](CN2CCN(c3cc4c(cn3)[C@H](C)NCC4)CC2)O1` (single isomer, unassigned) [Example 85] is 87 nM; for `C[C@@H]1CN(c2ccc(C#N)c3ncccc23)C[C@H](CN2CCN(c3ccc4c(c3)CNC4)[C@@H](CO)C2)O1` [Example 4, 5-[(2S,6R)-2-[[(3R)-3-(hydroxymethyl)-4-isoindolin-5-yl-piperazin-1-yl]methyl]-6-methyl-morpholin-4-yl]quinoline-8-carbonitrile] it is 148 nM.
On to `C[C@@H]1CN(c2ccc(C#N)c3ncccc23)C[C@H](CN2CCN(c3ncc4c(n3)CNCC4)CC2)O1` [Example 12, 5-[(2R,6S)-2-methyl-6-[[4-(5,6,7,8-tetrahydropyrido[3,4-d]pyrimidin-2-yl)piperazin-1-yl]methyl]morpholin-4-yl]quinoline-8-carbonitrile], for which the IC50 was 143 nM.
Consider `C[C@@H]1CN(c2ccc(C#N)c3ncccc23)C[C@H](CN2CCN(c3ccc4c(c3)CNC4)C(CO)C2)O1` (stereo partly drawn) [Example 13, 5-[(2S,6R)-2-[[3-(hydroxymethyl)-4-isoindolin-5-yl-piperazin-1-yl]methyl]-6-methyl-morpholin-4-yl]quinoline-8-carbonitrile], for which the IC50 was 109 nM.
To `C[C@@H]1CN(c2ccc(C#N)c3ncccc23)C[C@H](CN2CCN(c3ccc4c(c3)CNC4)CC2CO)O1` (stereo partly drawn) [Example 15, 5-[(2S,6R)-2-[[2-(hydroxymethyl)-4-isoindolin-5-yl-piperazin-1-yl]methyl]-6-methyl-morpholin-4-yl]quinoline-8-carbonitrile] belongs 97 nM; to `C[C@@H]1CN(c2ccc(C#N)n3ncc(F)c23)C[C@H](CN2CCN(c3cnc4c(c3)CNC4)CC2)O1` [Example 26, 4-[(2S,6R)-2-[[4-(6,7-dihydro-5H-pyrrolo[3,4-b]pyridin-3-yl)piperazin-1-yl]methyl]-6-methyl-morpholin-4-yl]-3-fluoro-pyrazolo[1,5-a]pyridine-7-carbonitrile], 119 nM.
As for `CC1NCc2cc(N3CCN(C[C@H]4CN(c5ccc(C#N)c6ncccc56)C[C@@H](C)O4)CC3)ccc21` (stereo partly drawn) [Example 28, 5-[(2R,6S)-2-methyl-6-[[4-(1-methylisoindolin-5-yl)piperazin-1-yl]methyl]morpholin-4-yl]quinoline-8-carbonitrile], the IC50 was 52 nM.
The figure for `C[C@@H]1CN(c2ccc(C#N)c3ncccc23)C[C@H](CN2CCN(c3nc4c(s3)CNCC4)CC2)O1` [Example 31, 5-[(2R,6S)-2-methyl-6-[[4-(4,5,6,7-tetrahydrothiazolo[5,4-c]pyridin-2-yl)piperazin-1-yl]methyl]morpholin-4-yl]quinoline-8-carbonitrile] is 140 nM; for `C[C@@H]1CN(c2ccc(C#N)c3ncccc23)C[C@H](CN2CCC(Nc3ccc4c(c3)CNC4)C2)O1` (stereo partly drawn) [Example 38, 5-[(2S,6R)-2-[[3-(isoindolin-5-ylamino)pyrrolidin-1-yl]methyl]-6-methyl-morpholin-4-yl]quinoline-8-carbonitrile] it is 34 nM.
With `C[C@@H]1CN(c2ccc(C#N)c3ncccc23)C[C@H](CNC2CN(c3cnc4c(c3)CNC4)C2)O1` [Example 43, 5-[(2S,6R)-2-[[[1-(6,7-dihydro-5H-pyrrolo[3,4-b]pyridin-3-yl)azetidin-3-yl]amino]methyl]-6-methyl-morpholin-4-yl]quinoline-8-carbonitrile], the IC50 was 111 nM.
Turning to `C[C@@H]1CN(c2ccc(C#N)c3ncccc23)C[C@H](CN2CC3(C2)CN(c2ncc4c(n2)CCNC4)CCO3)O1` [Example 51, 5-[(2R,6S)-2-methyl-6-[[8-(5,6,7,8-tetrahydropyrido[4,3-d]pyrimidin-2-yl)-5-oxa-2,8-diazaspiro[3.5]nonan-2-yl]methyl]morpholin-4-yl]quinoline-8-carbonitrile], the IC50 is 134 nM.
To `C[C@@H]1CN(c2ccc(C#N)c3ncccc23)C[C@H](CN2CCN(c3ccc4c(c3)C(O)CN(C)C4)CC2)O1` (stereo partly drawn) [Example 59, 5-[(2S,6R)-2-[[4-(4-hydroxy-2-methyl-3,4-dihydro-1H-isoquinolin-6-yl)piperazin-1-yl]methyl]-6-methyl-morpholin-4-yl]quinoline-8-carbonitrile] belongs 133 nM.
